# Reference: patent publication US20130005718A1 (priority 2009, published 2013)
# “And” between values parts separate entries of the source, which are not always exact repeats. Identical values can stand only once. “Also recorded” adds a separate entry of the source. Like-named read-outs stand apart in the source and are kept apart here.
# How the values were obtained:
# [1] = biological target: T1, HCN1 channels (Mus musculus, UniProt O88704); assay: Two-electrode voltage clamp (TEVC) of HCN1 channel gating in Xenopus oocytes; assay type: cell-based, murine; details: for HCN isoform preference (words): HCN1 versus HCN2, 3 or 4
# T1 construct: expressed in transfected cells; host or cells: Xenopus oocytes (cRNA injection)
# [2] = test system: GABAA-Rs; details: cited from earlier work
# [3] = biological target: HCN2 (Mus musculus, UniProt O88703); details: 20 μM, n=6
# Experimental: (§1) cDNA encoding murine (HCN1, 2 and 4) and human (HCN3) HCN channels were subcloned into pGH19 (HCN1 and 4) or pGHE (HCN2 and HCN3) vectors and amplified in STBL2 cells (Invitrogen Corporation, Carlsbad, Calif.). cRNA was transcribed from NheI (HCN1, HCN3 and HCN4) or SphI (HCN2) linearized DNA using T7 RNA polymerase (Message Machine; Ambion, Houston, Tex.). 11-50 ng RNA was injected into each Xenopus oocyte.
# (§2) Recordings were made from Xenopus oocytes 2-5 days after cRNA injection. Cells were maintained in L-15 media without ficoll (Specialty Media, Phillipsburg, N.J.) at 17° C. until use.
# (§3) Two microelectrode voltage clamp (TEVC) data, acquired using a Warner Instruments (Hamden, Conn.) OC-725C amplifier, were recorded with Pulse software (HEKA Elektronik, Lambrecht/Pfalz, Germany) following filtering of the wide bandwidth output of the clamp at 2.5 kHz (with a Frequency Devices 902 8-pole Bessel filter) and digitization at 5 kHz using an ITC-18 interface (Instrutech Corporation, Port Washington, N.Y.).
# (§4) Microelectrodes were fabricated from 1B120-F4 borosilicate glass (World Precision Instruments, Sarasota, Fla.) and had resistances of 0.1-0.5 MΩ (I passing) and 1-4 MΩ (V sensing) when filled with 3 M KCl. The Ag—AgCl ground wire(s) of the active virtual ground circuit were connected to the bath solution by 3M KCl-2% agar salt bridges placed downstream of, but close to, the oocyte. Recordings were obtained at room temperature (22-24° C.).
# [4] = biological target: HCN3 (Homo sapiens, UniProt Q9P1Z3); details: 20 μM, n=6
# Experimental: as §1, §2, §3, §4
# [5] = biological target: HCN4 (Mus musculus, UniProt O70507); details: 20 μM, n=4
# Experimental: as §1, §2, §3, §4
# [6] = test system: PNL-induced mechanical allodynia and hyperalgesia; assay: Von Frey fiber test after partial sciatic nerve ligation (PNL); assay type: in vivo, C57 Black/6J mice
# [7] = test system: PNL-induced thermal hyperalgesia; assay: Hind paw withdrawal latency (HPWL) to heat source after PNL; assay type: in vivo, C57 Black/6J mice; details: i.p., 15% heat stimulus
# [8] = test system: righting reflex; details: i.p. cumulative up to 60 mg/kg
# [9] = variously reported; cited from earlier work
# [10] = test system: righting reflex; details: cited from earlier work
# [11] = cited from earlier work
# [12] = in vivo; cited from earlier work
# [13] = HCN1 V1/2 dose-response, relative to 2,6-DTBP
# T1 sequence (O88704 whole entry, canonical isoform): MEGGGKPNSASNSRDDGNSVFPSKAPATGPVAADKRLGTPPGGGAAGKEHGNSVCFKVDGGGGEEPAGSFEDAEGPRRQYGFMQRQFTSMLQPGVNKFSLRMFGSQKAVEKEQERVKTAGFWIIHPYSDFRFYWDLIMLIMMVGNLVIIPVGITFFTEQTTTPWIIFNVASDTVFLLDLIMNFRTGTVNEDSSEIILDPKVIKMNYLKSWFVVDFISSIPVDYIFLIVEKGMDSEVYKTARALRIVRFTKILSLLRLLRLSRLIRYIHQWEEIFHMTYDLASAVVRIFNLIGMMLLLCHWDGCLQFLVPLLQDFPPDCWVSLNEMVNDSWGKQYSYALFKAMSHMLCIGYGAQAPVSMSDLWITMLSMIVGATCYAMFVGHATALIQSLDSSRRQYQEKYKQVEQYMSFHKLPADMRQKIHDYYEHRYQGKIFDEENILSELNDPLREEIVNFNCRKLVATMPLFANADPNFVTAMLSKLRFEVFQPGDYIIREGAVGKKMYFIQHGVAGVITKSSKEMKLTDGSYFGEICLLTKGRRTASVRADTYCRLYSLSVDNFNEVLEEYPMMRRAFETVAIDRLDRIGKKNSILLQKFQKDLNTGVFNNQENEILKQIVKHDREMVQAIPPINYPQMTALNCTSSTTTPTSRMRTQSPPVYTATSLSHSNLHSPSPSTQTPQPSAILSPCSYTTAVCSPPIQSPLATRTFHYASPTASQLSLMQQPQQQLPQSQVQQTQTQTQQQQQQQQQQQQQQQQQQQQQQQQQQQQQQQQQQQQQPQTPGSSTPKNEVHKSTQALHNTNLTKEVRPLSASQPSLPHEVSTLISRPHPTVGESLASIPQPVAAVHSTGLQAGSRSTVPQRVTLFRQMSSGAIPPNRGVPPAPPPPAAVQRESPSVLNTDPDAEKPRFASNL
# HCN2, sequence (O88703 whole entry): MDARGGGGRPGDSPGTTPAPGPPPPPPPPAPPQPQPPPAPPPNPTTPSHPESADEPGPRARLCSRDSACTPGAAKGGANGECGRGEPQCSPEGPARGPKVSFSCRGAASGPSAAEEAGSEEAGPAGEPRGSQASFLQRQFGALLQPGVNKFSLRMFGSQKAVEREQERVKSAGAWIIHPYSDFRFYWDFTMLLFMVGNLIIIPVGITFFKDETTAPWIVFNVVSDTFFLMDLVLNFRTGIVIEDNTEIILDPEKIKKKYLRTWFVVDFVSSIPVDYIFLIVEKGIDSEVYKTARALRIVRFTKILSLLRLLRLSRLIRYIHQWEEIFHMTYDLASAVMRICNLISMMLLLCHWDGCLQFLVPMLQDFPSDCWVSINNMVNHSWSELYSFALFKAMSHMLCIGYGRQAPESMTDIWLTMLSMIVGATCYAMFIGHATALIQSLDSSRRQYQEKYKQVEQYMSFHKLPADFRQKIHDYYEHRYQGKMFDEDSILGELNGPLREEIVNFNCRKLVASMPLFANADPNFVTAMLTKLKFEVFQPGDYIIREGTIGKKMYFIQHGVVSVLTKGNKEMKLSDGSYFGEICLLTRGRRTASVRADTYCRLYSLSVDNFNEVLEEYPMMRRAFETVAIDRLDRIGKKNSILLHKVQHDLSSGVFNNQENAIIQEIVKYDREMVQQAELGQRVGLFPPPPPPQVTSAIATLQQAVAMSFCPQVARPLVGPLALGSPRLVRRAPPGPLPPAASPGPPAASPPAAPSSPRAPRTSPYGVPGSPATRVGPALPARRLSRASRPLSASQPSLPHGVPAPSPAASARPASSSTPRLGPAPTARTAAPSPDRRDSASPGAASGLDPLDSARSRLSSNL
# HCN3, sequence (Q9P1Z3 whole entry): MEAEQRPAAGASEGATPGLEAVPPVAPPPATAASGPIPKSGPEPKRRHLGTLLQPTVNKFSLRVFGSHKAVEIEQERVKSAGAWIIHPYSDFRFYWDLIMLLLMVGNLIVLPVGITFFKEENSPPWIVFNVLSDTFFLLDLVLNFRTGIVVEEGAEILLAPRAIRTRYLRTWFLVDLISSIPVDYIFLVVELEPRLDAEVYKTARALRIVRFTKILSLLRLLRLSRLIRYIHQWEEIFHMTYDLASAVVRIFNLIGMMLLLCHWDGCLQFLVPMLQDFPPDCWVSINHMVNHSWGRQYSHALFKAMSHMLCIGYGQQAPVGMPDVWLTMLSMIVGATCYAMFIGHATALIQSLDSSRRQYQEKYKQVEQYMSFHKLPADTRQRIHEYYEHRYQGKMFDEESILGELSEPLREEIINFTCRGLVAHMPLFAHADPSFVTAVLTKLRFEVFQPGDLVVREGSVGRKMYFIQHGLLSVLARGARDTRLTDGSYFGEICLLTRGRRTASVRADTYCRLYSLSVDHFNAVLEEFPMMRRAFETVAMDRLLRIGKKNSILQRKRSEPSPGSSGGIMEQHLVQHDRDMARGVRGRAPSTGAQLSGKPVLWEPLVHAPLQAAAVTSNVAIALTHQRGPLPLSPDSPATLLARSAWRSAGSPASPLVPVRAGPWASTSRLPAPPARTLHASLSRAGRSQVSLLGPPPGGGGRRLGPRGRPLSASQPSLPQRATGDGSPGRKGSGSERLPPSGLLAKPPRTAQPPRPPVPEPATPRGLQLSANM
# HCN4, sequence (O70507 whole entry): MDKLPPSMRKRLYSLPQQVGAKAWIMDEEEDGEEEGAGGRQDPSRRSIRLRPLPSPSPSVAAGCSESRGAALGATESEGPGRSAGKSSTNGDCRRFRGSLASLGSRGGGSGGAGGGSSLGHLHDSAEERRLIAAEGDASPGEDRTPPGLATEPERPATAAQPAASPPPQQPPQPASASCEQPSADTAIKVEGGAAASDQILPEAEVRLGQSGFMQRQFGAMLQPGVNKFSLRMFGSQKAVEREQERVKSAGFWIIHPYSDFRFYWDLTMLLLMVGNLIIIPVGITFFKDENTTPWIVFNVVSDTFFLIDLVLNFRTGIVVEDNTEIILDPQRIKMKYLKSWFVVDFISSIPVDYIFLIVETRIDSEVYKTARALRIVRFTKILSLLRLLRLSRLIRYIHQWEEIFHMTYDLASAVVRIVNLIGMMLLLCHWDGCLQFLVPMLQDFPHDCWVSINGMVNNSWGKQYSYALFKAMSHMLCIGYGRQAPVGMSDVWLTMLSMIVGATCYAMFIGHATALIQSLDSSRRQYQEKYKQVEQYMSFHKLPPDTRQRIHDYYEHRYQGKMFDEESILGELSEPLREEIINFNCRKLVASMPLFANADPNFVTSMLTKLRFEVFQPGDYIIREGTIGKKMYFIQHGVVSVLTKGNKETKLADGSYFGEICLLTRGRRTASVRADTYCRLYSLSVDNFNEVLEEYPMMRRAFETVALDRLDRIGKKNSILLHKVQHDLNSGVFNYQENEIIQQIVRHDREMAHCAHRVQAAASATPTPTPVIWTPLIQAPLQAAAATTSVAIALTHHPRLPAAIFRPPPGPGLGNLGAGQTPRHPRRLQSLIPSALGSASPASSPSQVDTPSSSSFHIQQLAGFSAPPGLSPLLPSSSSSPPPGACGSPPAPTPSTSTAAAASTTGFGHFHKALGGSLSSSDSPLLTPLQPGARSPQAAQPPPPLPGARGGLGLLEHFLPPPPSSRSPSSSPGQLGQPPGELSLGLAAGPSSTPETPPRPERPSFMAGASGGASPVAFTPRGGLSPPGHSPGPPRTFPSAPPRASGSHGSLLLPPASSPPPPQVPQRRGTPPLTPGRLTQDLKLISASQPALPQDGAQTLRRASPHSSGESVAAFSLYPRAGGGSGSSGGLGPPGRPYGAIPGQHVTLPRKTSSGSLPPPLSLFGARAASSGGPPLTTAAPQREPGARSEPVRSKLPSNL
compound,measurement,setting,value
"CC(C)(C)c1ccc(O)c(C(C)(C)C)c1 [2,4-DTBP, 2,4-di-tert-butylphenol]",HCN1 antagonism,[1],effective antagonist of HCN1
same,"offset of the 2,6-DTBP Hill fit line needed to describe the data",[1],2 fold
same,HCN isoform preference (words),[1],"preferentially inhibit HCN1 with little efficacy against HCN2, 3 or 4 channels"
same,allosteric modulation of GABAA-Rs,[2],ineffective
CC(C)c1cccc(C(C)C)c1O [propofol],EC50,"[1]; EC50 for hyperpolarization of V1/2 of HCN1 gating (Hill fit), 20 min incubation, Xenopus oocytes, TEVC",7 to 13 µM and 13 µM and ~13 µM
same,HCN isoform preference (words),[1],"preferentially inhibits HCN1 with little efficacy against HCN2, 3 or 4 channels"
same,apparent stoichiometry h (Hill coefficient),[1]; Hill fit of dose-response,1.1
same,concentration at which shift in HCN1 V1/2 was significant,[1]; versus DMSO control,≥ 3 µM
same,ΔV1/2 of HCN2,[3],−9.1 mV
same,ΔV1/2 of HCN3,[4],−0.6 mV
same,ΔV1/2 of HCN4,[5],0.1 mV
same,difference between PW IPSI and PW CONTRA,[6]; 20 mg/kg i.p.,significantly reduced
same,PW IPSI response,[6]; 60 mg/kg i.p. cumulative,indistinguishable from the control value of PW CONTRA
same,"effect on PW CONTRA, mechanical nociception",[6]; 20 to 60 mg/kg i.p.,no statistically significant effect
same,neuropathic analgesia occurs at doses lower than hypnosis/anesthesia,[6]; i.p.,3-10 fold and 3 to 10 fold
same,mechanical hyperalgesia/allodynia in ipsilateral paw,"[6]; i.p. cumulative dosing, post-PNL mice",markedly reduced the mechanical hyperalgesia observed in the ipsilateral paw; also recorded: selectively suppresses partial sciatic nerve ligation (PNL)-induced mechanical allodynia and hyperalgesia
same,PW IPSI as a function of control PW CONTRA (ratio) after drug,"[6]; i.p., 2.5 to 4 g fibers averaged, 3.3 before drug, unity = complete amelioration",1.6
same,reversal of the neuropathic phenotype,"[6]; subhypnotic i.p. doses, 2.5 to 4 g fibers averaged",about 75%
same,"mechanical threshold, Logit transformation (allodynia, words)",[6]; threshold set at PW of 0.1,selectively restored the mechanical threshold to that observed in the uninjured paw
same,"thermal hyperalgesia, ipsilateral HPWL (words)",[7],powerfully and preferentially relieved neuropathic thermal hyperalgesia; also recorded: relieve the neuropathic behavior; also recorded: selectively ameliorate PNL-induced thermal hyperalgesia
same,"thermal nociception, contralateral HPWL",[7],without significantly altering nociceptive behavior
same,loss of righting reflex,[8],No animals lost their righting reflex
same,Plasma [propofol] Total,"Engdahl et al., 1998, calculated with MW 178.3",12.3 µM
same,estimated serum free concentration evoking analgesia,estimated from 3 to 10 fold lower doses than anesthesia,0.1 to 0.3 µM
same,CSF concentration required for anesthesia relative to plasma,from Table 2,approximately one-tenth
same,aqueous solubility limit,[9],864 to 1740 µM
same,i.p. dose required for obviation of righting reflex,[10]; i.p.,greater than 100 mg/kg
same,intravenous dose for anesthesia,"[10]; mice, i.v.",5 mg/kg
same,Plasma [propofol] Total,"[11]; Engdahl et al., 1998",2.2 µg/mL
same,steady-state free concentration in the plasma,[11]; during general anesthesia,~1 µM
"CCC(C)c1ccc(O)c(C(C)CC)c1 (stereo not shown) [2,4-DSBP, 2,4-di-sec-butylphenol]","offset of the 2,6-DTBP Hill fit line needed to describe the data",[1]; [13],23 fold
same,allosteric modulation of GABAA-Rs,[2],effective agonist of GABAA-Rs; also recorded: potent allosteric activators of the chloride channels
same,anesthetic activity,[12],potent anesthetics
"CCC(C)c1cccc(C(C)CC)c1O (stereo not shown) [2,6-DSBP, 2,6-di-sec-butylphenol]",HCN1 antagonism,[1],weak HCN1 antagonist
same,"offset of the 2,6-DTBP Hill fit line needed to describe the data",[1]; [13],15 fold
same,allosteric modulation of GABAA-Rs,[2],potent allosteric activators of the chloride channels
same,anesthetic activity,[12],potent anesthetics
